Results: patent publication US5047397A, “Linear analogs of atrial natriuretic peptides” (California Biotechnology Inc., priority 1988, dated 1991)
*1 amine or outer side, *2 acyl side, *3 side chain or, on linkers, in order; H or OH if unused. Where a SMILES comes first, the peptide text is derived from it. Where no end group is shown, it is not given here. [ ]: non-standard residue; d: D form. The star is where a group is joined. ξ: configuration not given here. Acetyl(2-naphthyloxy) = O=C(COc1ccc2ccccc2c1)*; X10 = O=C(CNc1ccc(C(=O)*)cc1)c1ccc2ccccc2c1; ξNaproxenoyl = COc1ccc2cc(C(C)C(=O)*)ccc2c1; Acetyl(2-naphthyl) = O=C(Cc1ccc2ccccc2c1)*; Fmoc = O=C(OCC1c2ccccc2-c2ccccc21)*; NH(2S-methylbutyl) = CC[C@H](C)CN*; 2Naphthoyl = O=C(c1ccc2ccccc2c1)*; NMeI = CC[C@H](C)[C@H](NC)C(=O)O; X1 = O=C(Cc1ccc(N[*:1])cc1)[*:2]; Met(O) = CS(=O)CC[C@H](N)C(=O)O; Cit = NC(=O)NCCC[C@H](N)C(=O)O; 4Amb = NCc1ccc(C(=O)O)cc1; Ahx = NCCCCCC(=O)O; Ava = NCCCCC(=O)O; BrAc = O=C(CBr)*; NHiBu = CC(C)CN*

Biological target: T1, specific ANP receptor sites on BASM or BAE cells (Bos taurus, UniProt P10730)
T1 construct: specific receptor sites on BASM or BAE cells; endogenous in cells; host or cells: cultured BASM and BAE cells
T1 sequence (P10730 42-537): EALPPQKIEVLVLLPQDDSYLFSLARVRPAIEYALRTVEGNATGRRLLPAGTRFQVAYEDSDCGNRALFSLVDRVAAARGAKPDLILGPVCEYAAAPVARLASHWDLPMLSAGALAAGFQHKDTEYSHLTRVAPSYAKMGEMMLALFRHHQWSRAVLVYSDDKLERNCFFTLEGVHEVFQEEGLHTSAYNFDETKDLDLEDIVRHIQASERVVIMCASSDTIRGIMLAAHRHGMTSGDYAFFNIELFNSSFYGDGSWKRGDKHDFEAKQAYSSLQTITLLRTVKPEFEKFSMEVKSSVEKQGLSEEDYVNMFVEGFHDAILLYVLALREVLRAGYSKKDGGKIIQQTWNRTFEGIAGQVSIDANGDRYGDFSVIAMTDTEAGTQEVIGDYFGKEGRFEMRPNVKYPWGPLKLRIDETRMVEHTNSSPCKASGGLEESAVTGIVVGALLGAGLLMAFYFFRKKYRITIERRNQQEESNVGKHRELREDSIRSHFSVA
Assay: Competitive displacement receptor binding of (125I)-rANP(126-150) on cultured cells
Design: species or system bovine
Source text: Analogous "competitive displacement" receptor binding assays are considered commonplace in the art for examining specific ligand-receptor interactions.
Assuming these ANP analogs act at one or more ANP receptor sites, then increased receptor affinity should reflect increased biological potency.

[1] = concentration of unlabeled peptide displacing 50% of maximal binding of 0.5 nM (125I)-rANP(126-150), BASM or BAE cells

Compound	Ki(app) [1] [nM]	Ki(app) (specificity table, unrelated peptide hormones, unit inferred) [nM]	receptor binding / activity as judged by Ki, in words
CC[C@H](C)[C@H](NC(=O)[C@H](CCCNC(N)=O)NC(=O)[C@H](CC(=O)O)NC(=O)[C@@H](NC(=O)[C@H](CCCNC(=N)N)NC(=O)CNC(=O)CNC(=O)Cc1ccc2ccccc2c1)[C@@H](C)CC)C(N)=O [AP593, (2-NA)--G--G--R--I--D--Cit--I--NH2] ({Acetyl(2-naphthyl)}-GGRID[Cit]I-NH2)	55.0	–	–
CC[C@H](C)[C@H](NC(=O)[C@H](CCCNC(=N)N)NC(=O)[C@H](CC(=O)O)NC(=O)[C@@H](NC(=O)[C@H](CCCNC(=N)N)NC(=O)CNC(=O)CNC(=O)Cc1ccc2ccccc2c1)[C@@H](C)CC)C(N)=O [AP314, (2-NA)--G--G--R--I--D--R--I--NH2] ({Acetyl(2-naphthyl)}-GGRIDRI-NH2)	14.5	–	–
CC[C@H](C)[C@H](NC(=O)[C@H](CCCNC(=N)N)NC(=O)[C@H](CC(=O)O)NC(=O)[C@@H](NC(=O)[C@H](CCCNC(=N)N)NC(=O)CNC(=O)CNC(=O)Cc1ccc2ccccc2c1)[C@@H](C)CC)C(=O)NCC(=O)N[C@@H](C)C(N)=O [AP306, (2--Naphthylacetyl)-G-G-R-I-D-R-I-G-A-NH2] ({Acetyl(2-naphthyl)}-GGRIDRIGA-NH2)	2.03	–	–
CC[C@H](C)[C@H](NC(=O)[C@H](Cc1ccc(O)cc1)NC(=O)[C@@H](NC(=O)[C@H](CCCNC(=N)N)NC(=O)[C@@H](N)CC(=O)O)C(C)C)C(=O)N[C@@H](Cc1c[nH]cn1)C(=O)N1CCC[C@H]1C(=O)N[C@@H](Cc1ccccc1)C(=O)O [angiotensin II, reference compound]	–	> 500	–
CC[C@H](C)[C@H](NC(=O)[C@H](CCCNC(=N)N)NC(=O)[C@H](CC(=O)O)NC(=O)[C@@H](NC(=O)[C@H](CCCNC(=N)N)NC(=O)CNC(=O)CNC(=O)COc1ccc2ccccc2c1)[C@@H](C)CC)C(=O)NCC(=O)N[C@@H](C)C(N)=O [AP318, (2-NOA)--G--G--R--I--D--R--I--G--A--NH2] ({Acetyl(2-naphthyloxy)}-GGRIDRIGA-NH2)	8.7	–	–
CCNC(=O)CNC(=O)[C@H]([C@@H](C)CC)N(C)C(=O)[C@H](CCCNC(=N)N)NC(=O)[C@H](CC(=O)O)NC(=O)[C@@H](NC(=O)[C@H](CCCNC(=N)N)NC(=O)CNC(=O)CNC(=O)Cc1ccc2ccccc2c1)[C@@H](C)CC [AP529] ({Acetyl(2-naphthyl)}-GGRIDR[NMeI]G-NHEt)	87.3	–	–
CC[C@H](C)[C@H](NC(=O)[C@H](CCCNC(=N)N)NC(=O)[C@H](CC(=O)O)NC(=O)[C@@H](NC(=O)[C@H](CCCNC(=N)N)NC(=O)CNC(=O)CNC(=O)OCC1c2ccccc2-c2ccccc21)[C@@H](C)CC)C(N)=O [AP311, (FMOC)--G--G--R--I--D--R--I--NH2] (Fmoc-GGRIDRI-NH2)	10.33	–	–
CC[C@H](C)[C@H](NC(=O)[C@H](CCCNC(=N)N)NC(=O)[C@H](CC(=O)O)NC(=O)[C@@H](NC(=O)[C@H](CCCNC(=N)N)NC(=O)Cc1ccc(NC(=O)[C@H](Cc2ccccc2)NC(=O)CBr)cc1)[C@@H](C)CC)C(N)=O [AP819] (BrAc-F[X1]RIDRI-NH2)	3.8	–	–
CC[C@H](C)[C@H](NC(=O)[C@H](CCCNC(=N)N)NC(=O)CNC(=O)CNC(=O)Cc1ccc2ccccc2c1)C(=O)N[C@@H](CC(=O)O)C(=O)N[C@@H](CCCNC(=N)N)C(=O)NCC(C)C [AP510] ({Acetyl(2-naphthyl)}-GGRIDR-NHiBu)	116.0	–	–
CC[C@H](C)CNC(=O)[C@H](CCCNC(=N)N)NC(=O)[C@H](CC(=O)O)NC(=O)[C@@H](NC(=O)[C@H](CCCNC(=N)N)NC(=O)Cc1ccc(NC(=O)COc2ccc3ccccc3c2)cc1)[C@@H](C)CC [AP813] ({Acetyl(2-naphthyloxy)}-[X1]RIDR-{NH(2S-methylbutyl)})	56.0	–	–
CC[C@H](C)[C@H](NC(=O)[C@H](CCCNC(=N)N)NC(=O)[C@H](CC(=O)O)NC(=O)[C@@H](NC(=O)[C@H](CCCNC(=N)N)NC(=O)CCCCCNC(=O)COc1ccc2ccccc2c1)[C@@H](C)CC)C(N)=O [AP325, (2-NOA)--NH(CH2)5 CO--R--I--D--R--I--NH2] ({Acetyl(2-naphthyloxy)-Ahx}-RIDRI-NH2)	> 100	–	–
CC[C@H](C)[C@H](NC(=O)[C@H](CCCNC(=N)N)NC(=O)[C@H](CC(=O)O)NC(=O)[C@@H](NC(=O)[C@H](CCCNC(=N)N)NC(=O)CCCCNC(=O)Cc1ccc2ccccc2c1)[C@@H](C)CC)C(N)=O [AP324, (2-NA)--NH(CH2)4 CO--R--I--D--R--I--NH2] ({Acetyl(2-naphthyl)-Ava}-RIDRI-NH2)	48.5	–	–
CC[C@H](C)[C@H](NC(=O)[C@H](CCCNC(=N)N)NC(=O)[C@H](CC(=O)O)NC(=O)[C@@H](NC(=O)[C@H](CCCNC(=N)N)NC(=O)c1ccc(CNC(=O)c2ccc3ccccc3c2)cc1)[C@@H](C)CC)C(N)=O [AP795] ({2Naphthoyl-4Amb}-RIDRI-NH2)	11.9	–	–
CC[C@H](C)CNC(=O)[C@H](CCCNC(=N)N)NC(=O)[C@H](CC(=O)O)NC(=O)[C@@H](NC[C@H](CCCCN)NC(=O)Cc1ccc(NC(=O)c2ccc3ccccc3c2)cc1)[C@@H](C)CC [AP814]	33.0	–	–
AFGGRIDRI-NH2 [AP103, A--F--G--G--R--I--D--R--I--NH2]	12.42	–	–
CCNC(=O)CNC(=O)[C@@H](NC(=O)[C@H](CCCNC(=N)N)NC(=O)[C@H](CC(=O)O)NC(=O)[C@@H](NC(=O)[C@H](CCCNC(=N)N)NC(=O)CNC(=O)CNC(=O)Cc1ccc2ccccc2c1)[C@@H](C)CC)[C@@H](C)CC [AP524, (2-NA)--G--G--R--I--D--R--I--G--NH-(ethyl)] ({Acetyl(2-naphthyl)}-GGRIDRIG-NHEt)	2.76	–	–
CC[C@H](C)[C@H](NC(=O)[C@H](CCCNC(=N)N)NC(=O)[C@H](CC(=O)O)NC(=O)[C@@H](NC(=O)[C@H](CCCCN)NC(=O)Cc1ccc(NC(=O)c2ccc3ccccc3c2)cc1)[C@@H](C)CC)C(N)=O [AP802] (2Naphthoyl-[X1]KIDRI-NH2)	8.7	–	–
CC[C@H](C)[C@H](NC(=O)[C@H](CO)NC(=O)[C@H](CC(=O)O)NC(=O)[C@@H](NC(=O)[C@H](CCCNC(=N)N)NC(=O)CNC(=O)CNC(=O)Cc1ccc2ccccc2c1)[C@@H](C)CC)C(N)=O [AP516, (2-NA)--G--G--R--I--D--S--I--NH2] ({Acetyl(2-naphthyl)}-GGRIDSI-NH2)	399	–	very low, if any, activity
CC[C@H](C)[C@H](NC(=O)[C@H](CCCNC(=N)N)NC(=O)[C@H](CC(=O)O)NC(=O)[C@@H](NC(=O)[C@H](CCC(N)=O)NC(=O)CNC(=O)CNC(=O)Cc1ccc2ccccc2c1)[C@@H](C)CC)C(N)=O [AP522, (2-NA)--G--G--Q--I--D--R--I--NH2] ({Acetyl(2-naphthyl)}-GGQIDRI-NH2)	23.0	–	–
CC[C@H](C)[C@H](NC(=O)[C@H](CCCNC(=N)N)NC(=O)[C@@H](CC(=O)O)NC(=O)[C@@H](NC(=O)[C@H](CCCNC(=N)N)NC(=O)CNC(=O)CNC(=O)[C@H](Cc1ccccc1)NC(=O)[C@H](C)N)[C@@H](C)CC)C(=O)NCC(=O)N[C@@H](C)C(N)=O [AP303, A--F--G--G--R--I--D^ --R--I--G--A--NH2] (H-AFGGRI[dD]RIGA-NH2)	> 200	–	–
CC[C@H](C)[C@H](NC(=O)[C@H](CCCNC(=N)N)NC(=O)[C@H](CC(=O)O)NC(=O)[C@@H](NC(=O)[C@H](CCCNC(=N)N)NC(=O)CNC(=O)CNC(=O)C(C)c1ccc2cc(OC)ccc2c1)[C@@H](C)CC)C(=O)NCC(=O)N[C@@H](C)C(N)=O (stereo partly drawn) [AP528, 2(2'-(6'-MeONAP))--G--G--R--I--D--R--I--G--A--NH2] (ξNaproxenoyl-GGRIDRIGA-NH2)	22.5	–	–
CC[C@H](C)[C@H](NC[C@H](CCCCN)NC(=O)[C@H](CC(=O)O)NC(=O)[C@@H](NC(=O)[C@H](CCCNC(=N)N)NC(=O)Cc1ccc(NC(=O)Cc2ccc3ccccc3c2)cc1)[C@@H](C)CC)C(N)=O [AP807]	112	–	–
CC[C@H](C)[C@H](NC(=O)[C@H](CCCNC(=N)N)NC(=O)[C@H](CC(=O)O)NC(=O)[C@@H](NC(=O)[C@H](CCCNC(=N)N)NC(=O)c1ccc(NCC(=O)c2ccc3ccccc3c2)cc1)[C@@H](C)CC)C(N)=O [AP794] (X10-RIDRI-NH2)	13.1	–	–
CC[C@H](C)[C@H](NC(=O)[C@H](CCCNC(=N)N)NC(=O)[C@H](CC(=O)O)NC(=O)[C@@H](NC(=O)[C@H](CCCNC(=N)N)NC(=O)CNC(=O)[C@@H](C)NC(=O)[C@H](Cc1ccccc1)NC(=O)[C@H](C)N)[C@@H](C)CC)C(=O)NCC(=O)N[C@@H](C)C(N)=O [AP133, A--F--A^ --G--R--I--D--R--I--G--A--NH2] (H-AF[dA]GRIDRIGA-NH2)	2.93	–	–
CC[C@H](C)[C@H](NC(=O)[C@H](CCCNC(=N)N)NC(=O)[C@H](CC(=O)O)NC(=O)[C@H](CC[S+](C)[O-])NC(=O)[C@H](CCCNC(=N)N)NC(=O)CNC(=O)CNC(=O)Cc1ccc2ccccc2c1)C(N)=O (stereo partly drawn) [AP515, (2-NA)--G--G--R--MSO--D--R--I--NH2] ({Acetyl(2-naphthyl)}-GGR[Met(O)]DRI-NH2)	> 400	–	very low, if any, activity
